{"source": "paper PMC5617480", "about": "(Oncotarget, 2017)", "key": {"BEL-7404 cells": {"system": "BEL-7404 cells", "assay": "Senescence induction (SA-β-Gal staining)", "assay_type": "cell-based, human", "details": "BEL-7404, 2.0 μM, 7 d, compared with complexes 4 and 5", "method": "Platinum(II)-based drugs were widely used in anticancer chemotherapies, therefore, we performed experiments to test the potency of chiral platinum(II) complexes 4–6 for inducing senescence and apoptosis in BEL-7404 cells. […] We next investigated the effect of complexes 4–6 on the induction of apoptosis. BEL-7404 cells were incubated with complexes 4 (10 and 20 μM), 5 (10 and 20 μM) and 6 (5, 10 and 20 μM) for 24 h, respectively, and then these cells staining with PI and Annexin-V-FITC were determined by flow cytometry (Figure 3A and Supplementary Figure 18). […] Cells were treated with complexes 4–6 at 10 μM for 48 h, the cell cycle arrest was determined by using flow cytometry. […]\n(§1) Apoptosis analysis c-myc antibody, or anti-β-actin primary antibody and the Apoptosis was detected by flow cytometric analysis corresponding secondary antibody were used to detect of annexin V staining. […] Then, cells were incubated with annexin V-FITC and PI for 1.0 h at Staining for SA-β-Gal activity was carried out room temperature in the dark and immediately analyzed according to Moore and Chen reports. […] The data are presented as biparametric After the long-term incubation with complexes 4–6, the dot plots showing PI red fluorescence vs annexin V-FITC growth medium was aspirated and the BEL-7404 cells green fluorescence. were fixed in 2% formaldehyde/0.2% glutaraldehyde for 15.0 min at room temperature. […]"}, "hTERT and c-myc": {"system": "hTERT and c-myc", "assay": "Western blot and RT-PCR of hTERT and c-myc in BEL-7404 cells", "assay_type": "cell-based, human", "details": "BEL-7404, 10 μM, 24 h, compared to complexes 4 and 5", "method": "To further investigate the mechanism(s) how chiral platinum(II) complexes regulate telomerase activity, two genes (hTERT and c-myc) critically associated with telomerase activation were investigated. BEL-7404 cells were treated with chiral platinum(II) complexes 4–6 at 10 μM for 24 h, and then western blot and RT-PCR were performed to exam the expression of hTERT and c-myc at mRNA and protein levels. […] We further generated a GFP reporter system linked with c-myc or hTRET promotor which bears G4 DNA sequence. The reporter plasmids were transfected into BEL-7404 cells, and then the cells were treated with 10 μM chiral platinum(II) complexes for 24 h.\nas §1"}}, "data": [{"substance": "cis-[PtCl2(S-(–)-FOA)] [complex 6]", "values": [{"measurement": "level of senescence (β-galactosidase stain)", "setting": "BEL-7404 cells", "result": "higher level of senescence"}, {"measurement": "expression of hTERT and c-myc at mRNA and protein levels", "setting": "hTERT and c-myc", "result": "significantly attenuate"}]}]}
